Source: patent US20230146395A1, “Substituted Pyrimidines and Uses Thereof” (Verge Analytics, Inc., priority 2020, published 2023)
Counter-ions that a name gives are not always drawn.

Legend:
[1] = system: HEK 293T transfected with plasmids containing TDP-43 Q331K mutation; assay: HEK/TDP Survival assay (Cell-Titer-Glo, 48 hrs, maximal effect of rescue); assay type: cell-based; settings: Homo sapiens, HEK 293T with TDP-43 Q331K, (n) in brackets
In short: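 Cells transfected with TDP-43 Q331K, treated 48 h at eight concentrations (6 replicates); ATP read by CellTiter-Glo luminescence versus untreated wells on each plate. Effect per dose as Hedge's g with Empirical Bayes false-sign-rate correction (signed log s >3 = hit); value is maximal rescue from the dose-response curve.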

[2] = molecular target: T1, Full length human recombinant PIKFYVE (Homo sapiens, UniProt Q9Y2I7); assay: Inhibition of PIKfyve (microfluidic electrophoresis kinase assay, PI3P/PS substrate); assay type: biochemical; settings: 12 concentrations
T1 construct: Full length human recombinant PIKFYVE; purchased Carna Biosciences (Kobe, Japan); host or cells: baculovirus expression system
In short: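 GST-tagged full-length human PIKFYVE (baculovirus; 2 nM) with fluorescent PI3P/PS (1 μM PI3P) and […] in pH 7.5 HEPES with Mg2+/Mn2+, 1% DMSO, 3 h at room temperature. PI(3,5)P product/substrate ratio read by microfluidic electrophoresis; 12-point % inhibition versus no-enzyme and DMSO controls.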

T1 sequence (Q9Y2I7 whole entry): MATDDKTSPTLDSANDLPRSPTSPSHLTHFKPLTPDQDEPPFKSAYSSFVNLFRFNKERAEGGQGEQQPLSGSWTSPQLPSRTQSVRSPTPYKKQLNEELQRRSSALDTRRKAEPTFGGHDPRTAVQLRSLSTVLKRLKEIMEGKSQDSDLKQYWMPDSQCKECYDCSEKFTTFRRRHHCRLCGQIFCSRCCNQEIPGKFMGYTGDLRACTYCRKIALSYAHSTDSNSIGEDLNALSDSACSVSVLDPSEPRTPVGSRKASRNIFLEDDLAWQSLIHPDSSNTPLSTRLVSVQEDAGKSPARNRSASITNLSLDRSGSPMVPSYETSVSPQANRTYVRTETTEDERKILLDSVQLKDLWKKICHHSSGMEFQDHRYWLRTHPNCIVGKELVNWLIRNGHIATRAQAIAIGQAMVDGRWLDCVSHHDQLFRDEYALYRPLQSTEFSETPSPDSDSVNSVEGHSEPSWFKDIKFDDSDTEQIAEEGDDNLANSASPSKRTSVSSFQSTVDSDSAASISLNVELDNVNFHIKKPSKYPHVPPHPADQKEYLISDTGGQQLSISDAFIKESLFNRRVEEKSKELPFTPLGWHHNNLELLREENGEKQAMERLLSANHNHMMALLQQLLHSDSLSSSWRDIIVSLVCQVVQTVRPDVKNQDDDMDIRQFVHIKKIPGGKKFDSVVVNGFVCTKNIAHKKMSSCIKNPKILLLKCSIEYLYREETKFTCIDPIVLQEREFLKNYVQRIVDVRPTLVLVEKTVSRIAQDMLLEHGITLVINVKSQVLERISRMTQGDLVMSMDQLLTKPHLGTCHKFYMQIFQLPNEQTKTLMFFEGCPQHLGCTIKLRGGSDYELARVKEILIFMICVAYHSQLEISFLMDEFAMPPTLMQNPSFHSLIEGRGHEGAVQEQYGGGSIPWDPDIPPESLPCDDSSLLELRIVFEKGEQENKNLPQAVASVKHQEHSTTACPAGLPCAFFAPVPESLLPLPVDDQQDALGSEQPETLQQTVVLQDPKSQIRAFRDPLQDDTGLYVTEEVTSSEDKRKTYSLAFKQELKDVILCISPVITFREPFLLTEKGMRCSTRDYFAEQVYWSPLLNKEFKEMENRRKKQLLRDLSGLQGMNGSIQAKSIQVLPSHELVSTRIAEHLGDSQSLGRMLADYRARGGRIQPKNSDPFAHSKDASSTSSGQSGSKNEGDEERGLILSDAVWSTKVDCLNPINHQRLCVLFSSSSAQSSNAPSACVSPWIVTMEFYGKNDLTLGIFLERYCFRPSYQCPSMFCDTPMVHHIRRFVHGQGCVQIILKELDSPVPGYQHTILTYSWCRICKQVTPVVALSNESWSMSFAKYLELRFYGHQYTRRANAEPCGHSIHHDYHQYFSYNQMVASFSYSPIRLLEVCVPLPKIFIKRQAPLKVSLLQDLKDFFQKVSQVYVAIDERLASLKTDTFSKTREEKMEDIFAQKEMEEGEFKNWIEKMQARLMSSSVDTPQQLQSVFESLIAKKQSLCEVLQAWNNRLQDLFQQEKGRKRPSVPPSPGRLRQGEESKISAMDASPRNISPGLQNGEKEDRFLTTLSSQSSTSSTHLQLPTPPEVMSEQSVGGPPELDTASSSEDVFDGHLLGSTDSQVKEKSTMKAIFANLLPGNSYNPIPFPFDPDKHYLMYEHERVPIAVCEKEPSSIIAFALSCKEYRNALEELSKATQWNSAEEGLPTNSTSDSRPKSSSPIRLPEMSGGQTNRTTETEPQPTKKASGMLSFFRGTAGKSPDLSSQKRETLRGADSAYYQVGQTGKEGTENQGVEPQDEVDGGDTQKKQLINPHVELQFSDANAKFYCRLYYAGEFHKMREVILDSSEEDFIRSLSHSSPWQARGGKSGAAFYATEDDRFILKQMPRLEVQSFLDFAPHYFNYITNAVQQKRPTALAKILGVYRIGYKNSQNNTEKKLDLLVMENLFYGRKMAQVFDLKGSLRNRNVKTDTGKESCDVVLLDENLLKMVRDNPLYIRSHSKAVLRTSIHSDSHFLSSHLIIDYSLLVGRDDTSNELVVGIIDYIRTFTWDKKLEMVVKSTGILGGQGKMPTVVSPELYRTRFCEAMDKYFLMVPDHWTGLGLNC

IC50 [2]: 1.4 nM
SMILES: c1ccc(-c2cc(Nc3nc(N4CCOCC4)c4oc(-c5ccncc5)cc4n3)[nH]n2)cc1 [Compound 1, 4-morpholino-N-(3-phenyl-1H-pyrazol-5-yl)-6-(pyridin-4-yl)furo[3,2-d]pyrimidin-2-amine hydrochloride]
EC50 [1]: 14 nM
